target: T1, Somatostatin Receptor 2 (SSTR2) (Homo sapiens, UniProt P30874); assay: Biochemical Assay for Activation of Somatostatin Receptor 2 (SSTR2), Cisbio HTRF cAMP assay; assay type: cell-based; conditions: average pEC50; HTRF cAMP assay in stably-transfected cell line expressing SSTR2; cells incubated with compounds for 1-2h
T1 construct: expressed in transfected cells
Protocol: Biochemical Assay for Activation of Somatostatin Receptor 2 (SSTR2)
Agonistic activation of SSTRs leads to an […] production of intracellular cAMP levels. Cisbio's homogeneous time-resolved fluorescence (HTRF) cAMP assay was used to measure cAMP concentration in an high-throughput format. Increase in intracellular cAMP concentrations was measuring using a stably-transfected cell line expressing SSTR2. Test compounds were dissolved in DMSO. Cells were incubated with compounds for 1-2h, and subsequently competitive binding of cAMP produced due to the activation of SSTR2 by the test compounds was measured using the Cisbio cAMP Gs dynamic assay system (Perkin Elmer, Bedford, MA).
The average pEC50 was determined for the test compounds.

T1 sequence (P30874 whole entry, species assumed): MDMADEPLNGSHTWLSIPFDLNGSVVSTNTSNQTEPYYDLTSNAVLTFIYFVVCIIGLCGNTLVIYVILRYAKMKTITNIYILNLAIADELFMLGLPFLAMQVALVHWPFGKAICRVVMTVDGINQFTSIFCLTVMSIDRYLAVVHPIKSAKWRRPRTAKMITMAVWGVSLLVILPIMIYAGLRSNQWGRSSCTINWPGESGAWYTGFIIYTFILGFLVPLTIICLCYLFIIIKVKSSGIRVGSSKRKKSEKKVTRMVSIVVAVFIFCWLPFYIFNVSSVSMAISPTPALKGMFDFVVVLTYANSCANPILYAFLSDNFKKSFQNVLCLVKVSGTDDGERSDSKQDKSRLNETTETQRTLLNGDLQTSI

Compound	EC50
COc1cc(F)cc(-c2cnc3[nH]c(-c4ccc5[nH]c(=O)[nH]c5c4)nc3c2N2CC[C@@H](N)[C@H](OC)C2)c1 [Compound 49]	> 10000 nM
COc1cc(F)cc(-c2cnc3[nH]c(-c4cc(F)cc(C(N)=O)c4)nc3c2N2CC[C@@H](N)[C@H](OC)C2)c1 [Compound 50]	> 10000 nM
COc1cc(F)cc(-c2cnc3[nH]c(-c4cccc(C#N)c4O)nc3c2N2CC[C@@H](N)[C@H](OC)C2)c1 [Compound 51]	> 10000 nM
COc1cc(F)cc(-c2cnc3[nH]c(-c4cc(F)cc(C(=O)O)c4)nc3c2N2CC[C@@H](N)[C@H](OC)C2)c1 [Compound 52]	> 10000 nM
CO[C@@H]1CN(c2c(-c3cc(C)cc(F)c3)cnc3[nH]c(-c4cc(F)cc(C(N)=O)c4)nc23)CC[C@H]1N [Compound 53]	1000 nM
CO[C@@H]1CN(c2c(-c3cc(C)cc(F)c3)cnc3[nH]c(-c4cccc(C#N)c4O)nc23)CC[C@H]1N [Compound 54]	2510 nM
CO[C@@H]1CN(c2c(-c3cc(C)cc(F)c3)cnc3[nH]c(-c4ccc5[nH]c(=O)[nH]c5c4)nc23)CC[C@H]1N [Compound 55]	> 10000 nM
COc1cc(F)cc(-c2cnc3[nH]c(-c4ccc5[nH]c(=O)[nH]c5c4)nc3c2N2CCC(N)CC2)c1 [Compound 56]	1580 nM
COc1cc(F)cc(-c2cnc3[nH]c(-c4cccc(Br)c4O)nc3c2N2CCC(N)CC2)c1 [Compound 57]	10 nM
COc1cc(F)cc(-c2cnc3[nH]c(-c4cc(F)cc(C(N)=O)c4)nc3c2N2CCC(N)CC2)c1 [Compound 58]	501 nM
COc1cc(F)cc(-c2cnc3[nH]c(-c4cccc(C#N)c4O)nc3c2N2CCC(N)CC2)c1 [Compound 59]	631 nM
Cc1cc(F)cc(-c2cnc3[nH]c(-c4cccc(Br)c4O)nc3c2N2CCC(N)CC2)c1 [Compound 60]	3.16 nM
Cc1cc(F)cc(-c2cnc3[nH]c(-c4cc(F)cc(C(N)=O)c4)nc3c2N2CCC(N)CC2)c1 [Compound 61]	50.1 nM
Cc1cc(F)cc(-c2cnc3[nH]c(-c4ccc5[nH]c(=O)[nH]c5c4)nc3c2N2CCC(N)CC2)c1 [Compound 62]	631 nM
CC(C)(C)OC(=O)NC1CCN(c2c(-c3cc(F)cc(F)c3)cnc3nc(-c4cccc(Br)c4O)[nH]c23)CC1 [Compound 63]	> 10000 nM
NC1CCN(c2c(-c3cc(F)cc(F)c3)cnc3nc(-c4cccc(Br)c4O)[nH]c23)CC1 [Compound 64]	31.6 nM
NC(=O)c1cc(F)cc(-c2nc3c(N4CCC(N)CC4)c(-c4cc(F)cc(F)c4)cnc3[nH]2)c1 [Compound 65]	3160 nM
NC(=O)c1cccc2c1OCCCNC1CCN(CC1)c1c(-c3cc(F)cc(F)c3)cnc3ccc-2cc13 [Compound 67]	0.794 nM
Fc1cc(F)cc(-c2cnc3ccc4cc3c2N2CCC(CC2)NCCCCOc2cccc-4c2)c1 [Compound 68]	7.94 nM
Fc1cc(F)cc(-c2cnc3ccc4cc3c2N2CCC(CC2)NCCCCCOc2cccc-4c2)c1 [Compound 69]	1.26 nM
N#Cc1cccc2c1OCCOCCNC1CCN(CC1)c1c(-c3cc(F)cc(F)c3)cnc3ccc-2cc13 [Compound 70]	0.794 nM
N#Cc1cccc2c1OCCCCCNC1CCN(CC1)c1c(-c3cc(F)cc(F)c3)cnc3ccc-2cc13 [Compound 71]	0.158 nM
Cc1cc(F)cc(-c2cnc3ccc4cc3c2N2CCC(CC2)NCCCCOc2c(C#N)cccc2-4)c1 [Compound 73]	0.0251 nM
Cc1cc(F)cc(-c2cnc3ccc4cc3c2N2CCC(CC2)NCCCCOc2c(C(N)=O)cccc2-4)c1 [Compound 74]	0.251 nM
NC(=O)c1cccc2c1OCCCCNC1CCN(CC1)c1c(-c3cc(F)cc(F)c3)cnc3ccc-2cc13 [Compound 75]	2 nM
Cc1cc(F)cc(-c2cnc3ccc4cc3c2N2CCC(CC2)NCCCCOc2ccccc2-4)c1 [Compound 76]	0.0794 nM
N#Cc1cccc2c1OCCO[C@H]1CN(CC[C@@H]1N)c1c(-c3cc(F)cc(F)c3)cnc3ccc-2cc13 [Compound 77]	6.31 nM

Compound	EC50
O=C1NCCNC2CCN(CC2)c2c(-c3cc(F)cc(F)c3)cnc3ccc(cc23)-c2cccc1n2 [Compound 78, 23-(3,5-difluorophenyl)-4,7-diaza-2(6,4)-quinolina-1(2,6)-pyridina-3(1.4)-piperidina-cyclooctaphan-8-one]	2510 nM
O=C1NCCNC2CCN(CC2)c2c(-c3cc(F)cc(F)c3)cnc3ccc(cc23)-c2cccnc21 [Compound 79, 2^3-(3,5-difluorophenyl)-4,7-diaza-2(6,4)-quinolina-1(3,2)-pyridina-3(1,4)-piperidinacyclooctaphan-8-one]	> 10000 nM
O=C1NCCCNC2CCN(CC2)c2c(-c3cc(F)cc(F)c3)cnc3ccc(cc23)-c2cccc1n2 [Compound 80]	6.31 nM
CN1CCCCNC2CCN(CC2)c2c(-c3cc(F)cc(F)c3)cnc3ccc(cc23)-c2cccc(c2)C1=O [Compound 81, 23-(3,5-difluorophenyl)-5-methyl-5, 10-diaza-2(4, 6)-quinolina-1(1, 4)-piperidina-3(1,3)-benzenacyclodecaphan-4-one]	2000 nM
CN1CCCCNC2CCN(CC2)c2c(-c3cc(F)cc(F)c3)cnc3ccc(cc23)-c2cccc(n2)C1=O [Compound 82, 24-(3,5-difluorophenyl)-11-methyl-2,6,11,22,27-pentaazapentacyclo[16.6.2.2^2,^5.1^13,^17.0^21,^25]nonacosa-1(24),13(27),14,16,18(26),19,21(25),22-octaen-12-one]	25.1 nM
O=C1NCCCCNC2CCN(CC2)c2c(-c3cc(F)cc(F)c3)cnc3ccc(cc23)-c2cccnc21 [Compound 84]	> 10000 nM
CN1CCCCNC2CCN(CC2)c2c(-c3cc(F)cc(F)c3)cnc3ccc(cc23)-c2cccnc2C1=O [Compound 85]	6310 nM
Cc1cc(F)cc(-c2cnc3ccc4cc3c2N2CCC(CC2)NCCCNC(=O)c2ccccc2-4)c1 [Compound 86]	6310 nM
Cc1cc(F)cc(-c2cnc3ccc4cc3c2N2CCC(CC2)NCCNC(=O)Oc2ccccc2-4)c1 [Compound 87, 23-(3-fluoro-5-methylphenyl)-4-oxa-6,9-diaza-2(4,6)-quinolina-1(1,4)-piperidina-3(1,2)-benzenacyclononaphan-5-one]	0.251 nM
N#Cc1cccc2c1OCCC(CO)NC1CCN(CC1)c1c(-c3cc(F)cc(F)c3)cnc3ccc-2cc13 (centres unmarked) [Compound 92]	> 10000 nM
N#Cc1cccc2c1NCCCNC1CCN(CC1)c1c(-c3cc(F)cc(F)c3)cnc3ccc-2cc13 [Compound 93]	158 nM
Cc1cc(F)cc(-c2cnc3ccc4cc3c2N2CCC(CC2)NCC(N=[N+]=[N-])CCOc2c(C#N)cccc2-4)c1 (centres unmarked) [Compound 94, 7-azido-23-(3-fluoro-5-methylphenyl)-4-oxa-9-aza-2(4.6)-quinolina-1(1.4)-piperidina-3(1,2)-benzenacyclononaphane-33-carbonitrile]	158 nM
Cc1cc(F)cc(-c2cnc3ccc4cc3c2N2CCC(CC2)NCC(N)CCOc2c(C#N)cccc2-4)c1 (centres unmarked) [Compound 95, 7-amino-23-(3-fluoro-5-methylphenyl)-4-oxa-9-aza-2(4,6)-quinolina-1(1,4)-piperidina-3(1.2)-benzenacyclononaphane-33-carbonitrile]	7.94 nM
Cc1cc(F)cc(-c2cnc(Cl)c(-c3nc4cc(F)c(F)cc4[nH]3)c2N2CCC(N)CC2)c1 [Compound 104, 1-(2-chloro-3-(5,6-difluoro-1H-benzo[d]imidazol-2-yl)-5-(3-fluoro-5-methylphenyl)pyridin-4-yl)piperidin-4-amine]	0.0794 nM
NCCCn1c(=O)n2c3ccccc3cc2c2cncc(-c3cc(F)cc(F)c3)c21 [Compound 105, 5-(3-aminopropyl)-4-(3,5-difluorophenyl)pyrido[4′,3′:4,5]pyrimido [1,6-a]indol-6(5H)-one]	> 10000 nM
CNCCCn1c(=O)n2c3cc(F)c(F)cc3nc2c2cncc(-c3cc(F)cc(F)c3)c21 [Compound 106, 4-(3,5-difluorophenyl)-9,10-difluoro-5-(3-(methylamino)propyl) benzo[4,5]imidazo[1,2-c]pyrido[3,4-e]pyrimidin-6(5H)-one]	2000 nM
Cc1cc(F)cc(-c2cnc3c(c2N2CCC(N)CC2)-c2nc4cc(F)c(F)cc4n2CC3)c1 [Compound 107, 1-(9,10-difluoro-2-(3-fluoro-5-methylphenyl)-5,6-dihydrobenzo [4,5]imidazo[2,1-f][1,6]naphthyridin-1-yl)piperidin-4-amine]	> 79.4 nM
NCCCN1Cc2ccc(F)cc2-c2cncc(-c3nc4cc(F)c(F)cc4[nH]3)c21 [Compound 108]	126 nM
CC(N)CCN1Cc2ccc(F)cc2-c2cncc(C(=O)Nc3ccc(F)c(F)c3)c21 (centres unmarked) [Compound 109, 5-(3-aminobutyl)-N-(3,4-difluorophenyl)-9-fluoro-6H-benzo [c][1,6]naphthyridine-4-carboxamide]	200 nM
NC1CCN(c2c(-c3cc(F)cc(F)c3)cnc3c2C(=O)N(c2ccc(F)c(F)c2)CC3)CC1 [Compound 110]	158 nM
Cc1cc(F)cc(-c2cnc3c(c2N2CCC(N)CC2)C(=O)N(c2ccc(F)c(F)c2)CC3)c1 [Compound 111]	15.8 nM
Cc1cc(C)cc(-c2cnc3c(c2N2CCC(N)CC2)C(=O)N(c2ccc(F)c(F)c2)CC3)c1 [Compound 112]	25.1 nM
N[C@@H]1CCN(c2c(-c3cc(F)cc(F)c3)cnc3c2C(=O)N(c2ccc(F)c(F)c2)CC3)C1 [Compound 113]	> 10000 nM
N[C@H]1CCN(c2c(-c3cc(F)cc(F)c3)cnc3c2C(=O)N(c2ccc(F)c(F)c2)CC3)C1 [Compound 114]	> 10000 nM
Cc1cc(C)cc(-c2cnc3c(c2N2CC[C@@H](N)C2)C(=O)N(c2cc(C)cc(C)c2)CC3)c1 [Compound 115]	1000 nM
Cc1cc(C)cc(-c2cnc3c(c2N2CC[C@H](N)C2)C(=O)N(c2cc(C)cc(C)c2)CC3)c1 [Compound 116]	1260 nM

— patent US20260053794A1, “SOMATOSTATIN RECEPTOR 2 AGONISTS AND USES THEREOF” (Exelixis, Inc., priority 2022, published 2026)
